Source: patent US20060069132A1, “Azolecarboxamide herbicides” (priority 2004, published 2006)
Read-outs that look alike come from different tables or passages of the source.

Key:
morningglory = test: Test A pre-/postemergence herbicide test; assay type: in vivo, Ipomoea spp.; details: for pest or weed control at 500 g/ha / pest or weed control at 2000 g/ha: Ipomoea, 240 h
In short: (§1)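 Visual injury scores on a 0–100 scale (100 = complete control) taken about ten days post-treatment in greenhouse against untreated controls; dash means no result. Treatments: preemergence soil spray and postemergence spray to runoff on one- to two-leaf plants 2 to 10 cm tall, surfactant-containing formulation.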

velvetleaf = test: Test A pre-/postemergence herbicide test; assay type: in vivo, Abutilon theophrasti
In short: as §1

rice [1] = test: Test B pre-/postemergence herbicide test; assay type: in vivo, Oryza sativa
In short: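 Greenhouse pot assay with simultaneous preemergence (treated seed) and postemergence (2–18 cm seedlings) applications of surfactant-containing, non-phytotoxic solvent formulations. Response scored visually 13–15 days later on a 0–100 scale, 100 meaning complete control.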

cocklebur = test: Test C pre-/postemergence herbicide test; assay type: in vivo, Xanthium strumarium
In short: (§2)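 Visual ratings on a 0–100 scale (100 = complete control) made versus untreated controls after 12 to 14 greenhouse days. Test chemicals, formulated in surfactant-containing non-phytotoxic solvent, applied preemergence to planted seeds or postemergence to 1- to 4-leaf plants (2 to 18 cm).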

lambsquarters = test: Test C pre-/postemergence herbicide test; assay type: in vivo, Chenopodium album; details: for Lambsquarters plant response rating: Preemergence, 500 g ai/ha, scale 0 to 100, 0 no effect, 100 complete control
In short: as §2

yellow nutsedge = test: Test C pre-/postemergence herbicide test; assay type: in vivo, Cyperus esculentus; details: for Nutsedge, Yellow plant response rating: Preemergence, 500 g ai/ha, scale 0 to 100, 0 no effect, 100 complete control
In short: as §2

common ragweed = test: Test C pre-/postemergence herbicide test; assay type: in vivo, Ambrosia elatior; design: key to Plant response rating, Ragweed: 0 = no effect, 100 = complete control; details: for Ragweed plant response rating: Preemergence, 500 g ai/ha, scale 0 to 100, 0 no effect, 100 complete control
In short: as §2

soybean = test: Test C pre-/postemergence herbicide test; assay type: in vivo, Glycine max; details: for Soybean plant response rating: Preemergence, 500 g ai/ha, scale 0 to 100, 0 no effect, 100 complete control
In short: as §2

[2] = tested on: common (oilseed) sunflower; test: Test C pre-/postemergence herbicide test; assay type: in vivo, Helianthus annuus; details: for Sunflower plant response rating: Preemergence, 500 g ai/ha, scale 0 to 100, 0 no effect, 100 complete control
In short: as §2

rice [3] = test: Test C flooded paddy test; assay type: in vivo, Oryza sativa; details: Oryza sativa
In short: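 Injury scored visually against controls on a 0 (no effect) to 100 (complete control) scale, 12 to 14 days after treatment in greenhouse. Flooded paddy plants treated at 2-leaf stage; postemergence plants at 1- to 4-leaf stage, 2 to 18 cm tall.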

[4] = Postemergence, 500 g ai/ha, 0 to 100 scale, 0 no effect, 100 complete control
[5] = Postemergence, 2000 g ai/ha, 0 to 100 scale, 0 no effect, 100 complete control
[6] = Preemergence, 2000 g ai/ha, visual rating, 0 to 100 scale (0 no effect, 100 complete control)
[7] = preemergence, 500 g ai/ha, visual injury, 0 to 100 scale (0 no effect, 100 complete control)
[8] = 62 g ai/ha, preemergence, scale 0 to 100
[9] = 125 g ai/ha, scale 0 (no effect) to 100 (complete control), visual, 12 to 14 days, preemergence
[10] = 250 g ai/ha, scale 0-100, preemergence

CCn1nc(C(C)(C)C)cc1C(=O)Nc1cccc2c1CN(C)C2=O [Compound 55, N-(2,3-dihydro-2-methyl-1-oxo-1H-isoindol-4-yl)-3-(1,1-dimethylethyl)-1-ethyl-1H-pyrazole-5-carboxamide]
pest or weed control at 500 g/ha (morningglory; post-emergence, Postemergence, 500 g ai/ha, 0 to 100 scale, 0 no effect, 100 complete control, read-out: Plant response rating, Morningglory): 20%
pest or weed control at 2000 g/ha (morningglory; post-emergence, Postemergence, 2000 g ai/ha, 0 to 100 scale, 0 no effect, 100 complete control, read-out: Plant response rating, Morningglory): 25%
pest or weed control at 500 g/ha (morningglory; pre-emergence, Preemergence, 500 g ai/ha, visual rating, 0 to 100 scale (0 no effect, 100 complete control), read-out: Morningglory plant response rating): 5%
pest or weed control at 2000 g/ha (morningglory; pre-emergence, Preemergence, 2000 g ai/ha, 0 to 100 scale, 0 no effect, 100 complete control, read-out: Morningglory plant response rating): 20%
pest or weed control at 2000 g/ha (velvetleaf; Abutilon theophrasti, post-emergence, 240 h, Postemergence, 2000 g ai/ha, 0 to 100 scale, 0 no effect, 100 complete control, read-out: Plant response rating, Velvetleaf): 40%
pest or weed control at 500 g/ha (velvetleaf; Abutilon theophrasti, pre-emergence, 240 h, Preemergence, 500 g ai/ha, visual rating, 0 to 100 scale (0 no effect, 100 complete control), read-out: Velvetleaf plant response rating): 20%
pest or weed control at 2000 g/ha (velvetleaf; Abutilon theophrasti, pre-emergence, 240 h, Preemergence, 2000 g ai/ha, 0 to 100 scale, 0 no effect, 100 complete control, read-out: Velvetleaf plant response rating): 70%
plant injury at 125 g/ha (rice [1]; Oryza sativa, pre-emergence, 336 h, preemergence, 125 g ai/ha, 0 to 100 scale, 0 is no effect, 100 is complete control, read-out: Plant response rating, Rice): 50%
Rice plant response rating (rice [1]; Preemergence, 500 g ai/ha, scale 0 to 100): 70
Plant response rating (0 = no effect, 100 = complete control), Cocklebur (cocklebur; 62 g ai/ha, preemergence): 0
pest or weed control at 125 g/ha (cocklebur; Xanthium strumarium, pre-emergence, 312 h, 125 g ai/ha, scale 0 (no effect) to 100 (complete control), visual, 12 to 14 days, read-out: Plant response rating, Cocklebur): 0%
pest or weed control at 250 g/ha (cocklebur; Xanthium strumarium, pre-emergence, 312 h, 250 g ai/ha, scale 0 to 100 (0 no effect, 100 complete control), visual, 12 to 14 days, read-out: Plant response rating, Cocklebur): 0%
pest or weed control at 500 g/ha (cocklebur; Xanthium strumarium, pre-emergence, 312 h, Preemergence, 500 g ai/ha, scale 0 to 100, 0 no effect, 100 complete control, read-out: Cocklebur plant response rating): 0%
Plant response rating (0 = no effect, 100 = complete control), Lambsquarters (lambsquarters; 62 g ai/ha, preemergence): 80
pest or weed control at 125 g/ha (lambsquarters; Chenopodium album, pre-emergence, 125 g ai/ha, scale 0 (no effect) to 100 (complete control), visual, 12 to 14 days, read-out: Plant response rating, Lambsquarters): 95%
pest or weed control at 250 g/ha (lambsquarters; Chenopodium album, pre-emergence, 250 g ai/ha, scale 0 to 100 (0 no effect, 100 complete control), visual, 12 to 14 days, read-out: Plant response rating, Lambsquarters): 100%
Lambsquarters plant response rating (lambsquarters): 100
Plant response rating (0 = no effect, 100 = complete control), Nutsedge, Yellow (yellow nutsedge; 62 g ai/ha, preemergence): 0
pest or weed control at 125 g/ha (yellow nutsedge; Cyperus, pre-emergence, 125 g ai/ha, scale 0 (no effect) to 100 (complete control), visual, 12 to 14 days, read-out: Plant response rating, Nutsedge, Yellow): 0%
pest or weed control at 250 g/ha (yellow nutsedge; Cyperus, pre-emergence, 250 g ai/ha, scale 0 to 100 (0 no effect, 100 complete control), visual, 12 to 14 days, read-out: Plant response rating, Nutsedge, Yellow): 0%
Nutsedge, Yellow plant response rating (yellow nutsedge): 10
Plant response rating (0 = no effect, 100 = complete control), Ragweed (common ragweed; 62 g ai/ha, preemergence): 0
pest or weed control at 125 g/ha (common ragweed; Ambrosia artemisiifolia, pre-emergence, 125 g ai/ha, scale 0 (no effect) to 100 (complete control), visual, 12 to 14 days, read-out: Plant response rating, Ragweed): 0%
pest or weed control at 250 g/ha (common ragweed; Ambrosia artemisiifolia, pre-emergence, 250 g ai/ha, scale 0 to 100 (0 no effect, 100 complete control), visual, 12 to 14 days, read-out: Plant response rating, Ragweed): 0%
Ragweed plant response rating (common ragweed): 80
Plant response rating (0 = no effect, 100 = complete control), Soybean (soybean; 62 g ai/ha, preemergence): 0
plant injury at 125 g/ha (soybean; Glycine max, pre-emergence, 125 g ai/ha, scale 0 (no effect) to 100 (complete control), visual, 12 to 14 days, read-out: Plant response rating, Soybean): 0%
plant injury at 250 g/ha (soybean; Glycine max, pre-emergence, 250 g ai/ha, scale 0 to 100 (0 no effect, 100 complete control), visual, 12 to 14 days, read-out: Plant response rating, Soybean): 0%
Soybean plant response rating (soybean): 20
Plant response rating (0 = no effect, 100 = complete control), Sunflower ([2]; 62 g ai/ha, preemergence): 0
pest or weed control at 125 g/ha ([2]; Helianthus annuus, pre-emergence, 125 g ai/ha, scale 0 (no effect) to 100 (complete control), visual, 12 to 14 days, read-out: Plant response rating, Sunflower): 0%
pest or weed control at 250 g/ha ([2]; Helianthus annuus, pre-emergence, 250 g ai/ha, scale 0 to 100 (0 no effect, 100 complete control), visual, 12 to 14 days, read-out: Plant response rating, Sunflower): 0%
Sunflower plant response rating [2]: 0
plant injury at 62 g/ha (rice [3]; 62 g ai/ha, scale 0 to 100 (0 no effect, 100 complete control), read-out: Rice plant response rating): 0%
plant injury at 125 g/ha (rice [3]; 125 g ai/ha, scale of 0 to 100, 0 is no effect, 100 is complete control, read-out: Rice plant response rating): 0%
plant injury at 250 g/ha (rice [3]; 250 g ai/ha, scale of 0 to 100, 0 is no effect, 100 is complete control, read-out: Rice plant response rating): 15%
plant injury at 500 g/ha (rice [3]; 500 g ai/ha, visual rating after 12 to 14 days, scale 0 to 100 (0 no effect, 100 complete control), read-out: Plant response rating, Rice): 60%

CCNC(=O)c1cccc(NC(=O)c2sc(C(C)(C)C)nc2C)c1 [Compound 198]
Morningglory plant response rating (morningglory; [4]): 60
Plant response rating, Morningglory (morningglory; [5]): 75
Morningglory plant response rating (morningglory; [6]): 85
Morningglory plant response rating (morningglory; [7]): 45
Velvetleaf plant response rating (velvetleaf; [4]): 30
Plant response rating, Velvetleaf (velvetleaf; [5]): 35
Velvetleaf plant response rating (velvetleaf; [6]): 85
Velvetleaf plant response rating (velvetleaf; [7]): 45
Rice plant response rating (0 to 100 scale) (rice [1]; 125 g ai/ha, 0 = no effect, 100 = complete control, preemergence): 30
Plant response rating, Rice (rice [1]; 500 g ai/ha, visual rating 0-100, 0 no effect, 100 complete control, preemergence): 80
Plant response rating, Cocklebur (cocklebur; [8]): 0
Plant response rating, Cocklebur (cocklebur; [9]): 0
Plant response rating, Cocklebur (cocklebur; [10]): 0
Cocklebur plant response rating (cocklebur; Preemergence, 500 g ai/ha, scale 0 to 100, 0 no effect, 100 complete control): 10
Plant response rating, Lambsquarters (lambsquarters; [8]): 85
Plant response rating, Lambsquarters (lambsquarters; [9]): 100
Plant response rating, Lambsquarters (lambsquarters; [10]): 100
Lambsquarters plant response rating (lambsquarters): 100
Plant response rating, Nutsedge, Yellow (yellow nutsedge; [8]): 0
Plant response rating, Nutsedge, Yellow (yellow nutsedge; [9]): 0
Plant response rating, Nutsedge, Yellow (yellow nutsedge; [10]): 0
Nutsedge, Yellow plant response rating (yellow nutsedge): 5
Plant response rating, Ragweed (common ragweed; [8]): 50
Plant response rating, Ragweed (common ragweed; [9]): 80
Plant response rating, Ragweed (common ragweed; [10]): 95
Ragweed plant response rating (common ragweed): 100
Plant response rating, Soybean (soybean; [8]): 0
Plant response rating, Soybean (soybean; [9]): 0
Plant response rating, Soybean (soybean; [10]): 0
Soybean plant response rating (soybean): 25
Plant response rating, Sunflower [2, 8]: 0
Plant response rating, Sunflower [2, 9]: 0
Plant response rating, Sunflower [2, 10]: 10
Sunflower plant response rating [2]: 20
